Results from US20220401414A1, “TREATMENT AND PREVENTION OF A NEURODEGENERATIVE DISORDER” (Inflazome Limited, priority 2019, published 2022).

Assay: Study B: blood-brain barrier penetration, striatal MetaQuant microdialysis in unilateral 6-OHDA lesioned mice after oral dosing
Assay type: in vivo, C57B1/6 mice
Conditions: 6-OHDA mice; for average peak levels in left and right striatal dialysate: MetaQuant dialysate, not corrected for recovery (recovery 61%); for time of average peak levels after compound administration: striatal dialysate
Procedure: The present study was designed to assess the free concentration of the compound of formula (I) in the left and right striatum of freely-moving adult male mice with a unilateral 6-hydroxydopamine (6-OHDA) lesion.
Adult male C57B1/6 mice (23-28 g; Envigo, the Netherlands) were used for the experiments. Following arrival, animals were housed in groups of 5 in polypropylene cages (40×50×20 cm) with wire mesh top in a temperature (22±2° C.) and humidity (55±15%) controlled environment on a 12 hour light cycle (07.00-19.00). Following surgery, animals were housed individually (cages 30×30×40 cm). Standard diet (SDS Diets, RM1 PL) and domestic quality mains water were available ad libitum.
Mice were anesthetized using isoflurane (2% and 500 mL/min O2). Before surgery, Finadyne (1 mg/kg, s.c.) was administered for analgesia during surgery and the post-surgical recovery period. A mixture of bupivacaine and epinephrine was used for local analgesia of the incision site.
The animals were placed in a stereotaxic frame (Kopf instruments, USA). 10 μg of 6-OHDA in 2 μL saline was slowly injected into the right striatum using a Hamilton needle (coordinates for the tip of the needle: AP=−0.5 mm (to bregma), ML=−2.0 mm (to midline), DV=-4.0 mm (to dura) with an angle of 0° and the incisor bar set at 0.0 mm.
In the same surgical procedure, guides for MetaQuant microdialysis probes with a 3 mm exposed polyacrylonitrile membrane (MQ-PAN 3/3) were implanted bilaterally into the left and right striatum (coordinates for the tip of the probe: AP=+0.8 mm (to bregma), ML=+/−1.7 mm (to midline), DV=−4.0 mm (to dura) with an angle of 0° and the incisor bar set at 0.0 mm. All coordinates were based on “The mouse brain in stereotaxic coordinates” by Paxinos and Franklin (2008). The probes were attached to the skull with a stainless-steel screw and dental cement.
The monosodium salt of the compound of formula (I) was formulated in sterilized tap water at concentrations of 0.2 and 4 mg/mL for oral dosing at 5 mL/kg; 1 mg/kg and 20 mg/kg, respectively.
After recovery from lesion and the guide surgery, on day 10, MetaQuant microdialysis probes were connected with flexible PEEK tubing (Western Analytical Products Inc. USA; PK005-020) to a microperfusion pump (Harvard) and perfused with a slow flow of artificial CSF (perfusate), containing 147 mM NaCl, 3.0 mM KCl, 1.2 mM CaCl2, and 1.2 mM MgCl2, at a flow rate of 0.12 μL/min and a carrier flow of UP+0.02 M FA+0.04% ascorbic acid at 0.8 μL/min. After a minimum of two hours of prestabilisation, microdialysis samples were collected in 60 minute intervals. […]
Levels of the compound of formula (I) in MetaQuant microdialysate samples were quantified by LC-MS/MS. […]

CC(C)n1ccc(S(=O)(=O)NC(=O)Nc2c3c(cc4c2CCC4)CCC3)n1 [compound of formula (I)]
average peak levels in left and right striatal dialysate (1 mg/kg oral): 17 to 19 nM
time of average peak levels after compound administration (1 mg/kg oral): 5 h
average peak levels in left and right striatal dialysate (20 mg/kg oral): 280 to 300 nM
time of average peak levels after compound administration (20 mg/kg oral): 6 h
